According to patent publication US4387105A, “Methods of treating atherosclerosis with dialkylureas and dialkylthioureas” (priority 1982, dated 1983):

Each compound was assayed against T1, fatty acyl CoA:cholesterol acyl transferase (ACAT) (Rattus norvegicus, UniProt O70536) (assay: Inhibition of ACAT in rat adrenal microsomal supernatant (14C-oleoyl CoA, cholesteryl ester counted)). Conditions: vs control without compound.
T1 construct: The supernatant, containing the microsomal fraction, served as the source of the cholesterol-esterifying enzyme; from tissue; host or cells: rat adrenals (1000 x g supernatant containing the microsomal fraction)
T1 sequence (O70536 1-545): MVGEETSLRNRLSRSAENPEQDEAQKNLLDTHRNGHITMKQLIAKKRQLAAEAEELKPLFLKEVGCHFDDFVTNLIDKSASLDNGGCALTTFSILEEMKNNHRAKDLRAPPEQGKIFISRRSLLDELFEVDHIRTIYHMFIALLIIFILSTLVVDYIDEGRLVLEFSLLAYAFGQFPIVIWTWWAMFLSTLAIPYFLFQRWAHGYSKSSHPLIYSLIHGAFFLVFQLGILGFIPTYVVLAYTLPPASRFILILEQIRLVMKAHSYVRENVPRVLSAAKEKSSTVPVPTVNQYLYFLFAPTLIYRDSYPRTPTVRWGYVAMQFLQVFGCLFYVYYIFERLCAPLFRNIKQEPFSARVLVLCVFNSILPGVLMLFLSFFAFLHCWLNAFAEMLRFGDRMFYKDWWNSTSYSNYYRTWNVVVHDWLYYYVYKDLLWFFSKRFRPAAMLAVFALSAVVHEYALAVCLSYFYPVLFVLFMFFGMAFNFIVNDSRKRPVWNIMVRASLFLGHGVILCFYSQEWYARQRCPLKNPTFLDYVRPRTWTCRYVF
Type: biochemical
Parameters: dose or concentration left out as unconfirmed
Protocol: The compounds of the present invention were assayed for two types of biological activity related to their potential use as antiatherosclerotic agents. Compounds were tested in vitro for the ability to inhibit the enzyme fatty acyl CoA:cholesterol acyl transferase (ACAT) and in vivo for serum hypolipidemic activity as measured by their ability to inhibit lipid absorption in rats. The compounds were tested for their ability to inhibit ACAT according to the following procedure:
Rat adrenals were homogenized in 0.2 M monobasic potassium phosphate buffer, pH 7.4, and centrifuged at 1000 times gravity for 15 minutes at 5° C. The supernatant, containing the microsomal fraction, served as the source of the cholesterol-esterifying enzyme, fatty acyl CoA:cholesterol acyl transferase (ACAT). A mixture comprising 50 parts of adrenal supernatant, 10 parts of albumin (BSA) (50 mg./ml.), 3 parts of test compound (final concentration […].) and 500 parts of buffer was preincubated at 37° C. for 10 minutes. After treatment with 20 parts of oleoyl CoA(^14 C-[…]) the mixture was incubated at 37° C. for 10 minutes. A control mixture, omitting the test compound, was prepared and treated in the same manner. The lipids from the incubation mixture were extracted into an organic solvent and separated by thin-layer chromatography. The cholesteryl ester fraction was counted in a scintillation counter. This procedure is a modification of that described by Hashimoto, et al., Life Scie., 12 (Part II), 1-12 (1973).

| Compound | % Inhibition [%] |
| --- | --- |
| CCCCN(CCCC)C(=O)Nc1ccc(F)cc1 [1,1-di-(n-butyl)-3-(4-fluorophenyl)urea, 1,1-Di-(n-butyl)-3-(4-fluorophenyl)urea] | 55.9 |
| Cc1ccc(NC(=O)N(CC(C)C)CC(C)C)cc1NC(=O)N(CC(C)C)CC(C)C [1,1-di-(isobutyl)-3-[(3,3-diisobutyl)urea-4-methylphenyl]urea] | 94.7 |
| CCCCN(CCCC)C(=O)Nc1cc(Cl)cc(Cl)c1Cl [1,1-Di-(n-butyl)-3-(2,3,5-trichlorophenyl)urea] | 61.6 |
| CCCCN(CCCC)C(=O)Nc1cccc(Cl)c1 [1,1-di-(n-butyl)-3-(3-chlorophenyl)urea, 1,1-Di-(n-butyl)-3-(3-chlorophenyl)urea] | 88.3 |
| CCCCN(CCCC)C(=O)Nc1ccc(F)c(Cl)c1 [1,1-Di-(n-butyl)-3-(3-chloro-4-fluorophenyl)urea] | 90.9 |
| Cc1ccc(C)c(NC(=O)N(CC(C)C)CC(C)C)c1 [1,1-di-(isobutyl)-3-(2,5-dimethylphenyl)urea] | 74.3 |
| CCCCCCCCCN(CCCCCCCCC)C(=O)Nc1ccc(C)cc1C [1,1-Di-(n-nonyl)-3-(2,4-dimethylphenyl)urea] | 90.0 |
| CCCCN(CCCC)C(=O)Nc1cc(C)ccc1C [1,1-Di-(n-butyl)-3-(2,5-dimethylphenyl)urea] | 96.1 |
| Cc1ccc(NC(=O)N(CCCCC2CCCCC2)CCCCC2CCCCC2)c(C)c1 [1,1-Di-(4-cyclohexyl-n-butyl)-3-(2,4-dimethylphenyl)urea] | 86.3 |
| CCCCN(CCCC)C(=O)Nc1ccc(C)cc1 [1,1-di-(n-butyl)-3-(4-methylphenyl)urea, 1,1-Di-(n-butyl)-3-(4-methylphenyl)urea] | 79.9 |
| Cc1cccc(C)c1NC(=O)N(CC(C)C)CC(C)C [1,1-di-(isobutyl)-3-(2,6-dimethylphenyl)urea] | 41.2 |
| CCCCN(CCCC)C(=O)Nc1ccc(OCC)cc1 [1,1-di-(n-butyl)-3-(4-ethoxyphenyl)urea, 1,1-Di-(n-butyl)-3-(4-ethoxyphenyl)urea] | 78.6 |
| CCCCN(CCCC)C(=O)Nc1ccc(I)cc1 [1,1-di-(n-butyl)-3-(4-iodophenyl)urea, 1,1-Di-(n-butyl)-3-(4-iodophenyl)urea] | 83.1 |
| CCCCN(CCCC)C(=O)Nc1ccc(Cl)cc1C [1,1-di-(n-butyl)-3-(4-chloro-2-methylphenyl)urea] | 88.0 |
| CCCCN(CCCC)C(=O)Nc1ccc(C(C)=O)cc1 [1,1-di-(n-butyl)-3-(4-acetylphenyl)urea, 1,1-Di-(n-butyl)-3-(4-acetylphenyl)urea] | 55.1 |
| CC(C)CN(CC(C)C)C(=O)Nc1ccccc1Cl [1,1-di-(isobutyl)-3-(2-chlorophenyl)urea] | 35.4 |
| CCCCN(CCCC)C(=O)Nc1ccc(C)c(NC(=O)N(CCCC)CCCC)c1 [1,1-di-(n-butyl)-3-[(3,3-dibutyl)urea-4-methylphenyl]urea] | 94.5 |
| CCCCN(CCCC)C(=O)Nc1cc(Cl)ccc1C [1,1-di-(n-butyl)-3-(5-chloro-2-methylphenyl)urea] | 75.3 |
| CCCCN(CCCC)C(=O)Nc1ccc(Cl)c(C(F)(F)F)c1 [1,1-Di-(n-butyl)-3-(4-chloro-3-trifluoromethylphenyl)urea] | 87.3 |
| CCCCN(CCCC)C(=O)Nc1cccc(SC)c1 [1,1-Di-(n-butyl)-3-(3-methylthiophenyl)urea] | 84.7 |
| CCCCN(CCCC)C(=O)Nc1cccc(Br)c1 [1,1-di-(n-butyl)-3-(3-bromophenyl)urea, 1,1-Di(n-butyl)-3-(3-bromophenyl)urea] | 86.0 |
| CCCCN(CCCC)C(=O)Nc1cccc(Cl)c1Cl [1,1-Di-(n-butyl)-3-(2,3-dichlorophenyl)urea] | 71.8 |
| 1,1-di-(n-butyl)-3-(2,3-dibenzophenyl)urea | 85.1 |
| Cc1ccc(NC(=O)N(C2CCCCC2)C2CCCCC2)c(C)c1 [1,1-dicyclohexyl-3-(2,4-dimethylphenyl)urea] | 94.3 |
